# What was measured:
# [1] = cited from earlier work
# [2] = healthy volunteers, 1 mg single oral dose
compound,measurement,setting,value
"C#CCN[C@@H]1CCc2ccccc21 [rasagiline, Rasagiline]",water solubility,[1],poorly water-soluble
same,adverse drug reactions (AEs causally related to rasagiline intake),[2],Only one AE (headache)

# From PMC9610285 (Pharmaceutics, 2022)
